Results: the supplement of paper PMC10307832

How the values were obtained:
Test in all cases: relative viability (nuclei count vs DMSO), 5 days (fraction); higher = more cells survive
HCC-78 = test system: HCC-78
Summary of the method: (§1)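 Lung cancer cell lines in 1536-well plates were dosed by pin tool the day after seeding, either with one drug alone or with a fixed anchor-drug dose plus five library-drug doses (not always all listed) in √10 steps. After 5 days, cells were fixed and their nuclei stained in one step (final 0.05% Triton X-100, 1% formaldehyde, 1 ug/ml Hoechst), then counted on 4× images. Relative viability is the nuclei count in treated wells divided by that in vehicle wells. Values are medians of duplicate plates.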

NCI-H650 = test system: NCI-H650
Summary of the method: as §1

HARA = test system: HARA
Summary of the method: as §1

NCI-H596 = test system: NCI-H596
Summary of the method: as §1

PC-3 [JPC-3] = test system: PC-3 [JPC-3]
Summary of the method: as §1

NCI-H23 = test system: NCI-H23
Summary of the method: as §1

COR-L23 = test system: COR-L23
Summary of the method: as §1

LU99A = test system: LU99A
Summary of the method: as §1

NCI-H3122 = test system: NCI-H3122
Summary of the method: as §1

NCI-H1793 = test system: NCI-H1793
Summary of the method: as §1

SK-LU-1 = test system: SK-LU-1
Summary of the method: as §1

NCI-H358 = test system: NCI-H358
Summary of the method: as §1

H3255 = test system: H3255
Summary of the method: as §1

201T = test system: 201T
Summary of the method: as §1

NCI-H1651 = test system: NCI-H1651
Summary of the method: as §1

NCI-H1755 = test system: NCI-H1755
Summary of the method: as §1

NCI-H460 = test system: NCI-H460
Summary of the method: as §1

NCI-H322M = test system: NCI-H322M
Summary of the method: as §1

NCI-H1650 = test system: NCI-H1650
Summary of the method: as §1

NCI-H2085 = test system: NCI-H2085
Summary of the method: as §1

HCC-366 = test system: HCC-366
Summary of the method: as §1

NCI-H2087 = test system: NCI-H2087
Summary of the method: as §1

NCI-H522 = test system: NCI-H522
Summary of the method: as §1

`CCNC(=O)c1noc(-c2cc(C(C)C)c(O)cc2O)c1-c1ccc(CN2CCOCC2)cc1` [Luminespib] + Cc1cc(Nc2cc(N3CCN(C)CC3)nc(Sc3ccc(NC(=O)C4CC4)cc3)n2)n[nH]1 [Tozasertib] (partner 0.1 µM) gave a relative viability (HCC-78; first compound 0.002 µM) of 0.399, a relative viability (HCC-78; first compound 0.006325 µM) of 0.273 and a relative viability (HCC-78; first compound 0.06325 µM) of 0.467. For the same compound, the relative viability (HCC-78; first compound 0.2 µM) was 0.303, the relative viability (NCI-H650; first compound 0.002 µM) was 0.805 and the relative viability (NCI-H650; first compound 0.006325 µM) was 0.695. For the same compound, the relative viability (NCI-H650; first compound 0.02 µM) was 0.516, the relative viability (NCI-H650; first compound 0.06325 µM) was 0.199 and the relative viability (NCI-H650; first compound 0.2 µM) was 0.0951. It also gave a relative viability (HARA; first compound 0.002 µM) of 0.158, a relative viability (HARA; first compound 0.006325 µM) of 0.103 and a relative viability (HARA; first compound 0.02 µM) of 0.106. For the same compound, the relative viability (HARA; first compound 0.06325 µM) was 0.172, the relative viability (HARA; first compound 0.2 µM) was 0.339 and the relative viability (NCI-H596; first compound 0.002 µM) was 0.959. The relative viability (NCI-H596; first compound 0.006325 µM) was 1.01, the relative viability (NCI-H596; first compound 0.02 µM) was 0.804 and the relative viability (NCI-H596; first compound 0.06325 µM) was 0.876. The relative viability (NCI-H596; first compound 0.2 µM) was 0.657, the relative viability (PC-3 [JPC-3]; first compound 0.002 µM) was 0.892 and the relative viability (PC-3 [JPC-3]; first compound 0.006325 µM) was 0.845. The relative viability (PC-3 [JPC-3]; first compound 0.02 µM) was 0.801, the relative viability (PC-3 [JPC-3]; first compound 0.06325 µM) was 0.656 and the relative viability (PC-3 [JPC-3]; first compound 0.2 µM) was 0.375. The relative viability (NCI-H23; first compound 0.002 µM) was 0.333, the relative viability (NCI-H23; first compound 0.006325 µM) was 0.351 and the relative viability (NCI-H23; first compound 0.02 µM) was 0.345. It also gave a relative viability (NCI-H23; first compound 0.06325 µM) of 0.279, a relative viability (NCI-H23; first compound 0.2 µM) of 0.229 and a relative viability (COR-L23; first compound 0.002 µM) of 0.237. It also gave a relative viability (COR-L23; first compound 0.006325 µM) of 0.192, a relative viability (COR-L23; first compound 0.02 µM) of 0.272 and a relative viability (COR-L23; first compound 0.06325 µM) of 0.0698. For the same compound, the relative viability (COR-L23; first compound 0.2 µM) was 0.0682, the relative viability (LU99A; first compound 0.002 µM) was 0.261 and the relative viability (LU99A; first compound 0.006325 µM) was 0.277. It also gave a relative viability (LU99A; first compound 0.02 µM) of 0.252, a relative viability (LU99A; first compound 0.06325 µM) of 0.176 and a relative viability (LU99A; first compound 0.2 µM) of 0.139. The relative viability (NCI-H3122; first compound 0.002 µM) was 0.451, the relative viability (NCI-H3122; first compound 0.006325 µM) was 0.39 and the relative viability (NCI-H3122; first compound 0.02 µM) was 0.106. The relative viability (NCI-H3122; first compound 0.06325 µM) was 0.0834, the relative viability (NCI-H3122; first compound 0.2 µM) was 0.0832 and the relative viability (NCI-H1793; first compound 0.002 µM) was 0.345. It also gave a relative viability (NCI-H1793; first compound 0.006325 µM) of 0.346, a relative viability (NCI-H1793; first compound 0.02 µM) of 0.296 and a relative viability (NCI-H1793; first compound 0.06325 µM) of 0.307. It also gave a relative viability (NCI-H1793; first compound 0.2 µM) of 0.13, a relative viability (SK-LU-1; first compound 0.002 µM) of 0.373 and a relative viability (SK-LU-1; first compound 0.006325 µM) of 0.313. The relative viability (SK-LU-1; first compound 0.02 µM) was 0.292, the relative viability (SK-LU-1; first compound 0.06325 µM) was 0.122 and the relative viability (SK-LU-1; first compound 0.2 µM) was 0.114. It also gave a relative viability (NCI-H358; first compound 0.002 µM) of 0.0938, a relative viability (NCI-H358; first compound 0.006325 µM) of 0.115 and a relative viability (NCI-H358; first compound 0.02 µM) of 0.104. The relative viability (NCI-H358; first compound 0.06325 µM) was 0.0661, the relative viability (NCI-H358; first compound 0.2 µM) was 0.0636 and the relative viability (H3255; first compound 0.002 µM) was 0.7. For the same compound, the relative viability (H3255; first compound 0.006325 µM) was 0.69, the relative viability (H3255; first compound 0.06325 µM) was 0.7 and the relative viability (H3255; first compound 0.2 µM) was 0.25. It also gave a relative viability (201T; first compound 0.002 µM) of 0.988, a relative viability (201T; first compound 0.006325 µM) of 0.907 and a relative viability (201T; first compound 0.02 µM) of 0.665. The relative viability (201T; first compound 0.06325 µM) was 0.89, the relative viability (201T; first compound 0.2 µM) was 0.849 and the relative viability (NCI-H1651; first compound 0.002 µM) was 0.812. The relative viability (NCI-H1651; first compound 0.006325 µM) was 0.577, the relative viability (NCI-H1651; first compound 0.02 µM) was 0.611 and the relative viability (NCI-H1651; first compound 0.06325 µM) was 0.313. It also gave a relative viability (NCI-H1651; first compound 0.2 µM) of 0.154, a relative viability (NCI-H1755; first compound 0.002 µM) of 0.585 and a relative viability (NCI-H1755; first compound 0.006325 µM) of 0.592. The relative viability (NCI-H1755; first compound 0.02 µM) was 0.646, the relative viability (NCI-H1755; first compound 0.06325 µM) was 0.214 and the relative viability (NCI-H1755; first compound 0.2 µM) was 0.192. It also gave a relative viability (NCI-H460; first compound 0.002 µM) of 0.554, a relative viability (NCI-H460; first compound 0.006325 µM) of 0.421 and a relative viability (NCI-H460; first compound 0.02 µM) of 0.597. For the same compound, the relative viability (NCI-H460; first compound 0.06325 µM) was 0.0212, the relative viability (NCI-H460; first compound 0.2 µM) was 0.0218 and the relative viability (NCI-H322M; first compound 0.002 µM) was 0.423. It also gave a relative viability (NCI-H322M; first compound 0.006325 µM) of 0.458, a relative viability (NCI-H322M; first compound 0.02 µM) of 0.422 and a relative viability (NCI-H322M; first compound 0.06325 µM) of 0.331. It also gave a relative viability (NCI-H322M; first compound 0.2 µM) of 0.301, a relative viability (NCI-H1650; first compound 0.002 µM) of 0.412 and a relative viability (NCI-H1650; first compound 0.006325 µM) of 0.455. The relative viability (NCI-H1650; first compound 0.02 µM) was 0.168, the relative viability (NCI-H1650; first compound 0.06325 µM) was 0.153 and the relative viability (NCI-H1650; first compound 0.2 µM) was 0.145. The relative viability (NCI-H2085; first compound 0.002 µM) was 0.804, the relative viability (NCI-H2085; first compound 0.006325 µM) was 0.749 and the relative viability (NCI-H2085; first compound 0.02 µM) was 0.758. The relative viability (NCI-H2085; first compound 0.06325 µM) was 0.879, the relative viability (NCI-H2085; first compound 0.2 µM) was 0.607 and the relative viability (HCC-366; first compound 0.002 µM) was 0.13. It also gave a relative viability (HCC-366; first compound 0.006325 µM) of 0.105, a relative viability (HCC-366; first compound 0.02 µM) of 0.108 and a relative viability (HCC-366; first compound 0.06325 µM) of 0.228. The relative viability (HCC-366; first compound 0.2 µM) was 0.0502, the relative viability (NCI-H2087; first compound 0.002 µM) was 0.26 and the relative viability (NCI-H2087; first compound 0.006325 µM) was 0.29. It also gave a relative viability (NCI-H2087; first compound 0.02 µM) of 0.243, a relative viability (NCI-H2087; first compound 0.06325 µM) of 0.113 and a relative viability (NCI-H2087; first compound 0.2 µM) of 0.0985. It also gave a relative viability (NCI-H522; first compound 0.002 µM) of 0.621, a relative viability (NCI-H522; first compound 0.006325 µM) of 0.545 and a relative viability (NCI-H522; first compound 0.02 µM) of 0.512. The relative viability (NCI-H522; first compound 0.06325 µM) was 0.584 and the relative viability (NCI-H522; first compound 0.2 µM) was 0.512.
